The source of these data is patent US20030138485A1, “Disintegrant” (DAIICHI PHARMACEUTICAL CO., LTD., priority 1998, published 2003).

One series can be described thus: physchem. To be noted: water.
Series [1] can be described thus: Measurement of viscosity of a saturated aqueous solution. Type of series: physicochemical. To be noted: B-type viscometer. Here is the method:
(2) Measurement of Viscosity of a Saturated Aqueous Solution
A saturated aqueous solution of a sample was prepared at 37° C., and the resultant solution was filtered by use of a membrane filter. The viscosity of the solution was measured by use of the resultant filtrate at 37° C. by means of a B-type viscometer.

The nature of series [2]: Increase in weight by moisture absorption. Particulars: for moisture absorption (in words): 25° C., relative humidity 75%, seven days, Table 2; for increase in weight by moisture absorption: sample stored 25° C., 75% open air, 7 days. In kind it is physicochemical. As to the method:
(7) Increase in Weight by Moisture Absorption
A sample tablet was weighed before and after moisture absorption, and the increase in weight of the tablet by moisture absorption (%) was calculated.
In test Example 2, erythritol and trehalose (in the form of hydrous crystals, products of Hayashibara Shoji Inc.) and xylitol and maltose (in the form of anhydrous crystals, products of Nihon Shokuhin Kako Co., Ltd.) were stored for seven days at a temperature of 25° C. and a relative humidity of 75%. Thereafter, each of these was subjected to measurement of increase in weight by moisture absorption (%). In Reference Example 2, the increases in weight by moisture absorption (%) of cornstarch, low substituted hydroxypropylcellulose, carmellose, carmellose calcium, and carmellose sodium were measured in the same manner as in Test Example 2. These compounds had been dried in a drier at 80° C. for one hour, and then employed as samples.

The conditions of series [3]: general description; cited from earlier work.

Values after ≈ are worked out from the molar mass of the structure shown.

Take `OC[C@@H](O)[C@@H](O)[C@H](O)[C@H](O)CO` [D-Mannitol, reference compound]: the thermodynamic solubility in the series “physchem” is 240 mg/mL (≈ 1320 mM). Also, the “Viscosity (37° C.)” value in series [1] came to 1.6 mPa · s.
Regarding `OC[C@@H](O)[C@@H](O)[C@H](O)[C@@H](O)CO` [D-Sorbitol, reference compound], the “Viscosity (37° C.)” value in series [1] was 2090 or more mPa · s.
For `OC[C@@H](O)[C@@H](O)CO` [Erythritol], the solubility (thermodynamic) in “physchem” is 450 mg/mL (≈ 3680 mM). In series [2], the “moisture absorption (in words)” value is given as “absorb little moisture” and the “increase in weight by moisture absorption” value (“increase in weight” for short) was 0.03%. In series [3], the heat of dissolution is -42.9 cal/g, the “hygroscopicity (in words)” value is reported as “not hygroscopic” and the “solubility in water (in words)” value was “easily dissolved in water”. In addition, the “Viscosity (37° C.)” value in series [1] came out at 3.5 mPa · s.
`OC[C@@H](O)[C@@H](O[C@@H]1O[C@H](CO)[C@H](O)[C@H](O)[C@H]1O)[C@H](O)[C@@H](O)CO` [Hydrogenated lactose, reference compound]: the “Viscosity (37° C.)” value in series [1] is given as 218 mPa · s.
The same measure, in the same setting: with `OC[C@H]1O[C@@H](O[C@H]2[C@H](O)[C@@H](O)C(O)O[C@@H]2CO)[C@H](O)[C@@H](O)[C@H]1O` (some centres unmarked) [Lactose, reference compound] the figure was 1.7 mPa · s.
On to `OC[C@H]1O[C@H](O[C@H]2[C@H](O)[C@@H](O)[C@H](O)O[C@@H]2CO)[C@H](O)[C@@H](O)[C@@H]1O` [Maltose], for which, in series [2], the “moisture absorption (in words)” value was “absorb little moisture” and the “increase in weight” value was determined as 0.06%. Also, in series [1], the “Viscosity (37° C.)” value is listed as 38 mPa · s.
For `CC(=O)[O-].[K+]` [Potassium acetate], the “Viscosity (37° C.)” value in series [1] amounted to 30 mPa · s.
The same measure, in the same setting: with `CC(=O)[O-].[Na+]` [Sodium acetate] the figure was 5.2 mPa · s.
For the compound `OC[C@H]1O[C@@](CO)(O[C@H]2O[C@H](CO)[C@@H](O)[C@H](O)[C@H]2O)[C@@H](O)[C@@H]1O` [Sucrose, reference compound], in the series “physchem”, the thermodynamic solubility came to 780 mg/mL (≈ 2280 mM). The “Viscosity (37° C.)” value in series [1] came to 1120 mPa · s.
The compound `OC[C@H]1O[C@H](O[C@H]2O[C@H](CO)[C@@H](O)[C@H](O)[C@H]2O)[C@H](O)[C@@H](O)[C@@H]1O` [Trehalose] came in with a solubility (thermodynamic) in “physchem” of 500 mg/mL (≈ 1460 mM). For the same compound, in series [2], the “moisture absorption (in words)” value is reported as “absorb little moisture” and the “increase in weight” value was determined as 0.99%. For the same compound, in series [3], the “hygroscopicity (in words)” value is “not hygroscopic” and the “solubility in water (in words)” value is reported as “easily dissolved in water”. In series [1], the “Viscosity (37° C.)” value is given as 11 mPa · s.
For `OC[C@@H](O)[C@H](O)[C@@H](O)CO` [Xylitol], the thermodynamic solubility in the series “physchem” was 740 mg/mL (≈ 4860 mM). In series [2], the “moisture absorption (in words)” value is “absorb little moisture” and the “increase in weight” value is 0.05%. In series [3], the heat of dissolution is -35 cal/g, the “hygroscopicity (in words)” value is “slightly hygroscopic” and the “solubility in water (in words)” value was “very easily dissolved in water”. For the same compound, the “Viscosity (37° C.)” value in series [1] is given as 37 mPa · s.

As usually defined, the thermodynamic solubility is solubility found after equilibrating the solid with the medium.
